As usually defined, the clearance is the rate of elimination divided by the concentration. Lower therefore signals a low capacity for elimination. What is called AUC is concentration integrated over time. The low end stands for less exposure, the high end for more exposure. For orientation: Cmax means the highest concentration seen after dosing.

The source of these data is ChEMBL document CHEMBL1136974, “Selective inhibitors of tumor progression loci-2 (Tpl2) kinase with potent inhibition of TNF-alpha production in human whole blood” (Bioorg Med Chem Lett, 2009).

Data set [1] can be described thus: Selectivity of Tpl2 to p38.
The nature of data set [2]: Selectivity of Tpl2 to Src.
The nature of data set [3]: Selectivity of Tpl2 to MK2.
The nature of data set [4]: Selectivity of Tpl2 to CAMK2.
Data set [5] in a line: Membrane permeability by PAMPA assay. The class given is ADME. The settings on record: read-out: permeability. Background: The PAMPA barrier holds no transporters, so it reflects passive diffusion.
The nature of data set [6]: Selectivity of Tpl2 to PKA.
The nature of data set [7]: Selectivity of Tpl2 to PKC.
Data set [8] can be described thus: Selectivity of Tpl2 to EGFR.
Data set [9] can be described thus: Clearance in rat. The following applies: in vivo. In kind it is ADME, organism-based.
A short description of data set [10]: AUC in rat at 100 mg/kg, po. The class given is ADME, organism-based. More on the design: dose 100 mg/kg, route oral. The settings on record: plasma.
The nature of data set [11]: Cmax in rat at 100 mg/kg, po. In kind it is ADME, organism-based. More on the design: dose 100 mg/kg, route oral. The settings on record: in vivo.

With `N#Cc1cnc2c(Br)cc(NCc3cn(-c4ccccc4)nn3)cc2c1Nc1ccc(F)c(Cl)c1`, the fold change (FC) in data set [1], in data set [2], in [3], in data set [4], in data set [6] and in data set [7] was 10 in each case. Further, the Papp in data set [5] was 1.2 ×10⁻⁶ cm/s.
As to `N#Cc1cnc2c(Cl)cc(NCc3c[nH]nn3)cc2c1Nc1ccc(F)c(Cl)c1`, the fold change (FC) in data set [1], in data set [2], in data set [3], in [4], in [6] and in [7] was 10 in each case. Also, the fold change (FC) in data set [8] is 10.
As for `N#Cc1cnc2c(Cl)cc(NCc3cn(CC(=O)O)nn3)cc2c1Nc1ccc(F)c(Cl)c1`, the fold change (FC) in [1], in data set [2], in data set [3], in data set [4], in [6] and in data set [7] was 10 each time. The Papp in [5] stood at 0.04 ×10⁻⁶ cm/s.
For `N#Cc1cnc2c(Cl)cc(NCc3cn(C4CCN(C5CCC5)CC4)nn3)cc2c1Nc1ccc(F)c(Cl)c1`, the fold change (FC) in data set [1], in [2], in data set [3], in data set [4], in data set [6] and in data set [7] was 10 throughout. Also, the Papp in data set [5] was determined as 0.43 ×10⁻⁶ cm/s.
Take `N#Cc1cnc2c(Br)cc(NCc3cn(Cc4cccnc4)nn3)cc2c1Nc1ccc(F)c(Cl)c1`: the fold change (FC) in data set [1], in [2], in data set [3], in [4], in [6] and in data set [7] was 10 throughout. The Papp in [5] was 0.13 ×10⁻⁶ cm/s.
Take `N#Cc1cnc2c(Br)cc(NCc3cn(CC(=O)O)nn3)cc2c1Nc1ccc(F)c(Cl)c1`: the fold change (FC) in [1], in data set [2], in [3], in data set [4], in data set [6] and in [7] was 10 each time. Further, the Papp in data set [5] worked out at 1.8 ×10⁻⁶ cm/s.
Consider `CC(C)(C)n1cc(CNc2cc(Cl)c3ncc(C#N)c(Nc4ccc(F)c(Cl)c4)c3c2)nn1`, for which the fold change (FC) in data set [1], in data set [2], in data set [3], in [6] and in data set [7] was 10 each time. Also, the Papp in data set [5] was 0.1 ×10⁻⁶ cm/s.
Turning to `N#Cc1cnc2c(Cl)cc(NCc3cn(Cc4ccncc4)nn3)cc2c1Nc1ccc(F)c(Cl)c1`, the fold change (FC) in data set [1], in data set [2], in data set [3], in data set [4], in data set [6] and in data set [7] was 10 each time. In [9], this molecule returned a clearance of 88 mL/min/kg.
For the molecule `CCN1CCC(n2cc(CNc3cc(Cl)c4ncc(C#N)c(Nc5ccc(F)c(Cl)c5)c4c3)nn2)CC1`, the fold change (FC) in data set [1], in [2], in data set [3], in data set [4], in data set [6] and in data set [7] was 10 throughout. In [8], this molecule gave a fold change (FC) of 6880. Further, in [5], the Papp came out at 0.36 ×10⁻⁶ cm/s. In addition, the AUC in [10] stood at 4840 ng·h/mL. This molecule also yielded a Cmax in data set [11] of 517 ng/mL.
Regarding `CCCN1CCC(n2cc(CNc3cc(Cl)c4ncc(C#N)c(Nc5ccc(F)c(Cl)c5)c4c3)nn2)CC1`, the fold change (FC) in [1], in data set [2], in [3], in data set [4], in data set [6] and in data set [7] was 10 throughout. In addition, the Papp in data set [5] was found to be 0.48 ×10⁻⁶ cm/s.
Take `N#Cc1cnc2c(Cl)cc(NCc3cn(-c4ccncc4)nn3)cc2c1Nc1ccc(F)c(Cl)c1`: the fold change (FC) in data set [1], in data set [2], in [3], in [4], in [6] and in [7] was 10 throughout. In data set [9], this molecule came in with a clearance of 28 mL/min/kg.
As for `CN1CCC(n2cc(CNc3cc(Cl)c4ncc(C#N)c(Nc5ccc(F)c(Cl)c5)c4c3)nn2)CC1`, the fold change (FC) in data set [1], in data set [2], in data set [3], in data set [4], in data set [6] and in [7] was 10 each time. Moreover, in data set [5], the Papp worked out at 0.39 ×10⁻⁶ cm/s.
Take `N#Cc1cnc2c(Cl)cc(NCc3cn(C4CCNCC4)nn3)cc2c1Nc1ccc(F)c(Cl)c1`: the fold change (FC) in data set [1], in data set [2], in [3], in [4], in [6] and in data set [7] was 10 throughout. The Papp in [5] was determined as 0.03 ×10⁻⁶ cm/s.
`N#Cc1cnc2c(Cl)cc(NCc3cn(CCC4CCCN4)nn3)cc2c1Nc1ccc(F)c(Cl)c1` (configuration not stated): the fold change (FC) in [1], in [2], in data set [3], in [4], in [6] and in data set [7] was 10 in each case. For the same molecule, the Papp in [5] was found to be 0.57 ×10⁻⁶ cm/s.
As for `N#Cc1cnc2c(Cl)cc(NCc3cn(CCN)nn3)cc2c1Nc1ccc(F)c(Cl)c1`, the fold change (FC) in data set [1], in [2], in [3], in [4], in data set [6] and in [7] was 10 each time.
Take `N#Cc1cnc2c(Cl)cc(NCc3cn(-c4cccnc4)nn3)cc2c1Nc1ccc(F)c(Cl)c1`: the fold change (FC) in data set [1], in data set [2], in [3], in [4], in data set [6] and in data set [7] was 10 each time.
As for `N#Cc1cnc2c(Br)cc(NCc3cn(CCC4CCCN4)nn3)cc2c1Nc1ccc(F)c(Cl)c1` (configuration not stated), the fold change (FC) in data set [1], in data set [2], in [3], in data set [4], in data set [6] and in [7] was 10 in each case. In [5], the Papp was 0.72 ×10⁻⁶ cm/s.
For the molecule `N#Cc1cnc2c(Cl)cc(NCc3cn(Cc4cccnc4)nn3)cc2c1Nc1ccc(F)c(Cl)c1`, the fold change (FC) in data set [1], in data set [2], in data set [3], in data set [4], in data set [6] and in data set [7] was 10 each time. Besides, the Papp in data set [5] amounted to 0.18 ×10⁻⁶ cm/s.
Take `CN1CCCC1CCn1cc(CNc2cc(Cl)c3ncc(C#N)c(Nc4ccc(F)c(Cl)c4)c3c2)nn1` (configuration not stated): the fold change (FC) in [1], in data set [2], in [3], in data set [4], in data set [6] and in data set [7] was 10 each time.
